Reference: the NIST ThermoML archive (doi:10.1016/j.fluid.2014.05.018)
Several values for one entry are separate records, joined by “and”; a condition that tells them apart may be missing. Equal values may be shown once. Numbers after ± are expanded uncertainties.

Settings: Liquid, Ebulliometric method (Recirculating still)

| Structure (SMILES) | vapor or sublimation pressure (313.2 K) | vapor or sublimation pressure (333.2 K) | vapor or sublimation pressure (353.2 K) | vapor or sublimation pressure (373.2 K) | vapor or sublimation pressure (403.2 K) |
| --- | --- | --- | --- | --- | --- |
| CC(C)C [2-methylpropane] | 536 ± 7 kPa | 880 ± 8 kPa | 1363 ± 10 kPa | 2014 ± 12 kPa | 3377 ± 16 kPa |
| CCCC [butane] | 379 ± 7 kPa | 645 ± 7 kPa | 1013 ± 8 kPa | 1525 ± 11 kPa | 2660 ± 14 kPa |
| CCO [ethanol] | 18 ± 6 kPa | 50 ± 6 kPa and 47 ± 6 kPa | 110 ± 6 kPa and 108 ± 6 kPa | 225 ± 6 kPa and 224 ± 6 kPa | 585 ± 7 kPa and 572 ± 7 kPa |
